Type in all cases: functional
Test [1] concerns Vibrio anguillarum. As to the kind of experiment: Antimicrobial activity against Vibrio anguillarum serotype O2b 04/09/367-5042 isolate containing gyrA and parC quinolone resistance mutations from Atlantic cod after 5 days by microplate broth dilution method. The following applies: 120 h.
For test [2], the system named is Vibrio anguillarum. As to the kind of experiment: Antimicrobial activity against Vibrio anguillarum serotype O2b 04/09/363-5034 isolate containing gyrA and parC quinolone resistance mutations from Atlantic cod after 5 days by microplate broth dilution method. The following applies: 120 h. In general terms: In broth dilution the organism is exposed to a series of concentrations in liquid medium.

The subject of test [3] is Vibrio anguillarum. As to the kind of experiment: Antimicrobial activity against Vibrio anguillarum serotype O2b 04/09/363-5036 isolate containing gyrA and parC quinolone resistance mutations from Atlantic cod after 5 days by microplate broth dilution method. The conditions noted are these: 120 h.
Test [4] deals with Vibrio anguillarum. As to the kind of experiment: Antimicrobial activity against Vibrio anguillarum serotype O2b 04/09/494-5106 isolate containing parC position 83 Ser-Ile substitution mutation from Atlantic cod after 5 days by microplate broth dilution method. The following applies: 120 h.
Test [5] deals with Vibrio anguillarum. Kind of test: Antimicrobial activity against Vibrio anguillarum serotype O2b 04/09/367-5043 isolate containing gyrA position 83 Ser-Ile substitution mutation from Atlantic cod after 5 days by microplate broth dilution method. The following applies: 120 h.
The test system of test [6] is Vibrio anguillarum. As to the kind of experiment: Antimicrobial activity against Vibrio anguillarum serotype O2b 04/09/422-5063 isolate containing gyrA and parC quinolone resistance mutations from Atlantic cod after 5 days by microplate broth dilution method. The following applies: 120 h.
In test [7] the test system is Vibrio anguillarum. Kind of test: Antimicrobial activity against Vibrio anguillarum serotype O2b 04/09/363-5036 isolate containing gyrA and parC quinolone resistance mutations from Atlantic cod at 30 ug by disc diffusion assay. The following applies: read-out: IZ. (A growth-free zone around the sample is the usual read-out of agar diffusion tests.)
The subject of test [8] is Vibrio anguillarum. Kind of test: Antimicrobial activity against Vibrio anguillarum serotype O2b 04/09/367-5043 isolate containing gyrA position 83 Ser-Ile substitution mutation from Atlantic cod at 30 ug by disc diffusion assay. The following applies: read-out: IZ.
Test [9] has as its system Vibrio anguillarum. Kind of test: Antimicrobial activity against Vibrio anguillarum serotype O2b 04/09/494-5106 isolate containing parC position 83 Ser-Ile substitution mutation from Atlantic cod at 30 ug by disc diffusion assay. The conditions noted are these: read-out: IZ.
The test system of test [10] is Vibrio anguillarum. As to the kind of experiment: Antimicrobial activity against Vibrio anguillarum serotype O2b 04/09/367-5042 isolate containing gyrA and parC quinolone resistance mutations from Atlantic cod at 30 ug by disc diffusion assay. The following applies: read-out: IZ.
Test [11] concerns Vibrio anguillarum. Kind of test: Antimicrobial activity against Vibrio anguillarum serotype O2b 04/09/422-5063 isolate containing gyrA and parC quinolone resistance mutations from Atlantic cod at 30 ug by disc diffusion assay. The following applies: read-out: IZ.
The subject of test [12] is Vibrio anguillarum. Kind of test: Antimicrobial activity against Vibrio anguillarum serotype O2b 04/09/363-5034 isolate containing gyrA and parC quinolone resistance mutations from Atlantic cod at 30 ug by disc diffusion assay. The conditions noted are these: read-out: IZ.
Test [13] has as its system Vibrio anguillarum. Kind of test: Antimicrobial activity against Vibrio anguillarum BAF33487 containing parC position 90 Glu-Gly substitution mutation.

Each structure is given as a SMILES string. Converted amounts (≈) assume the structure as drawn.

What is called MIC is the least concentration at which growth counts as inhibited. Higher therefore signals a less susceptible organism. On to `CCn1cc(C(=O)O)c(=O)c2ccc(C)nc21` [NALIDIXIC ACID], for which the MIC in the test on Vibrio anguillarum [1] is 16 µg/mL (≈ 68.9 µM); against Vibrio anguillarum [2], not above 1 µg/mL; against Vibrio anguillarum [3], not above 1 µg/mL; against Vibrio anguillarum [4] it was more than 128 µg/mL; against Vibrio anguillarum [5], 8 µg/mL (≈ 34.4 µM); in the test with Vibrio anguillarum [6], 16 µg/mL (≈ 68.9 µM).

In the case of `CC1CCc2cc(F)cc3c(=O)c(C(=O)O)cn1c23` (stereo not given) [FLUMEQUINE], the zone of inhibition at 30 µg/disc with Vibrio anguillarum [7] came out at 52 mm; in the test with Vibrio anguillarum [8], 37 mm; in the test on Vibrio anguillarum [9] it was 17 mm; in the test with Vibrio anguillarum [10], 36 mm; in the test on Vibrio anguillarum [11] it was 37 mm; in the test with Vibrio anguillarum [12], 54 mm.

Turning to `CCN1CCN(c2cc3c(cc2F)c(=O)c(C(=O)O)cn3C2CC2)CC1` [ENROFLOXACIN], the MIC in the test with Vibrio anguillarum [1] is 0.25 µg/mL (≈ 0.696 µM); against Vibrio anguillarum [2], not above 0.03 µg/mL; against Vibrio anguillarum [3], not above 0.03 µg/mL; with Vibrio anguillarum [4] it was 1 µg/mL (≈ 2.78 µM); against Vibrio anguillarum [5], 0.25 µg/mL (≈ 0.696 µM); in the test on Vibrio anguillarum [6], 0.5 µg/mL (≈ 1.39 µM).

`CCn1cc(C(=O)O)c(=O)c2cc3c(cc21)OCO3` [OXOLINIC ACID]: the MIC against Vibrio anguillarum [1] was 0.06 µg/mL (≈ 0.23 µM); with Vibrio anguillarum [13], 6.25 µg/mL (≈ 23.9 µM); against Vibrio anguillarum [3], not above 0.0001 µg/mL; against Vibrio anguillarum [4] it was 16 µg/mL (≈ 61.2 µM); in the test on Vibrio anguillarum [5], 0.06 µg/mL (≈ 0.23 µM); in the test on Vibrio anguillarum [6], 0.06 µg/mL (≈ 0.23 µM). For the same compound, the zone of inhibition at 30 µg/disc with Vibrio anguillarum [7] was determined as 47 mm; in the test with Vibrio anguillarum [8], 28 mm; in the test with Vibrio anguillarum [9], 0 mm; with Vibrio anguillarum [10], 27 mm; in the test with Vibrio anguillarum [11], 30 mm; with Vibrio anguillarum [12], 49 mm.
